From US9725465B2, “Biaryl acetamide compounds and methods of use thereof” (Ambit Biosciences Corporation, priority 2013, dated 2017)

How the values were obtained:
KIT kinase = KIT kinase (Homo sapiens (Human), UniProt P10721); test: Competition binding assay (Kd), KIT; conditions: competition binding assay
Procedure, shortened: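 Kinase, as T7 phage fusion or HEK-293-expressed DNA-tagged protein, competed off immobilised ligand beads by test compound (eleven-point threefold dilutions, from 100× DMSO stocks). Eluted kinase quantified by qPCR to derive Kd; DMSO used as control.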

FLT3-ITD = FLT3-ITD (Homo sapiens (Human), UniProt P36888, INS600HVDFREYEYD); test: pFLT3 MSD assay, Ba/F3 FLT3-ITD; assay type: cell-based; conditions: Ba/F3 FLT3-ITD cells, 2 hours, read-out: BaF3-FLT3-ITD pFlt3 IC50
Sequence of FLT3-ITD (P36888 other isoform, or with tags, fused parts or gaps limits assumed, stated change not applied): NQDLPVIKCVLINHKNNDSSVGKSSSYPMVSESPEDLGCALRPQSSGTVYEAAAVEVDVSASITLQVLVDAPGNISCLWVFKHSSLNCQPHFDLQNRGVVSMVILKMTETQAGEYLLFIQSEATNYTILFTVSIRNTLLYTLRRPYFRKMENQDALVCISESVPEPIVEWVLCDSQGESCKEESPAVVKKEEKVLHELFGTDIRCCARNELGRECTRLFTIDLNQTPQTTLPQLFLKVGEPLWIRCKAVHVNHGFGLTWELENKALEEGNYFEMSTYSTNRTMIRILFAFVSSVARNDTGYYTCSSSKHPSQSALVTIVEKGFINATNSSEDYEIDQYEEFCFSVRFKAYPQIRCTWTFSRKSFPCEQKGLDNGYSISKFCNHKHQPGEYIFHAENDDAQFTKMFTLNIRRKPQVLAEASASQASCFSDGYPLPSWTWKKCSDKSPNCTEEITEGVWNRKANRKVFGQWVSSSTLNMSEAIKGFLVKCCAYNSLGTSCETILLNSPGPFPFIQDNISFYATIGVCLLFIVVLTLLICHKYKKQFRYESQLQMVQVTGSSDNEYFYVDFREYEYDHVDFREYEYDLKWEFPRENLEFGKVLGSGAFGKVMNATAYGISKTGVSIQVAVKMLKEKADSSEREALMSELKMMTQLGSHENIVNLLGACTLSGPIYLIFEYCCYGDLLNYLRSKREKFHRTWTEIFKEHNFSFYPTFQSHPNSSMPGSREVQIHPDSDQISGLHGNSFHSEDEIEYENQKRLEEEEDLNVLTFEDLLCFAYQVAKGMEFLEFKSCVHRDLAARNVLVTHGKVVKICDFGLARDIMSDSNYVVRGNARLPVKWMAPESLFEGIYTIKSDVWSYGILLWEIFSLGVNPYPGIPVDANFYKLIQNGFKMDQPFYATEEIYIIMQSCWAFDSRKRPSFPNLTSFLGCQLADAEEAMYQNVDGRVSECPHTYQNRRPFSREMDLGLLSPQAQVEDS

FLT3 kinase = FLT3 kinase (Homo sapiens (Human), UniProt P36888); test: Competition binding assay (Kd), FLT3; conditions: competition binding assay
Sequence of FLT3 kinase (P36888 27-993): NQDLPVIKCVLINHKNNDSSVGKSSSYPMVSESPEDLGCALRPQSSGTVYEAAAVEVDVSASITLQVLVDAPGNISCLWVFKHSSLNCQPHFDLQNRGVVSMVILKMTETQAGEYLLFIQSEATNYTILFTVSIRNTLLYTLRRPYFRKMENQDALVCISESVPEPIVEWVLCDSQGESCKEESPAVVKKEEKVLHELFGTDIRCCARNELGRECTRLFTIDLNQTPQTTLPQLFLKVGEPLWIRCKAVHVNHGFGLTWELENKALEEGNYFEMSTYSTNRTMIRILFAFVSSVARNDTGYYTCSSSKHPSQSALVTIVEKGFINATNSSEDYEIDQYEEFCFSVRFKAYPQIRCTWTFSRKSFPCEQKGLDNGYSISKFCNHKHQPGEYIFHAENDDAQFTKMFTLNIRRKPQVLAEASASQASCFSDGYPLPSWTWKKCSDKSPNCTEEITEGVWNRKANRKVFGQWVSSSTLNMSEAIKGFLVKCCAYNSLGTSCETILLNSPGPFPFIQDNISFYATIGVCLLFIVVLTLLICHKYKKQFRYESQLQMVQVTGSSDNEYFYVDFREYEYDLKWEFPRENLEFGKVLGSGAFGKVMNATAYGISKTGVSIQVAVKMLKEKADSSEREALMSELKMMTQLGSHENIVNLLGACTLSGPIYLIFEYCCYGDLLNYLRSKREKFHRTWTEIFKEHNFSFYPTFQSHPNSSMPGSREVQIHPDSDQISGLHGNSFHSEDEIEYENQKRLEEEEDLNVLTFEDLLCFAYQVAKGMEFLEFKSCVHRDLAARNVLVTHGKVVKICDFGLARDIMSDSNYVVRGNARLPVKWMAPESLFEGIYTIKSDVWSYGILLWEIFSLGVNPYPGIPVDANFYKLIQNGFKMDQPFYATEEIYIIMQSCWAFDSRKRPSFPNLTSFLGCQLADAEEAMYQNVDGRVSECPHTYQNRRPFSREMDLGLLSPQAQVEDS

Sequence of KIT kinase (P10721 26-976): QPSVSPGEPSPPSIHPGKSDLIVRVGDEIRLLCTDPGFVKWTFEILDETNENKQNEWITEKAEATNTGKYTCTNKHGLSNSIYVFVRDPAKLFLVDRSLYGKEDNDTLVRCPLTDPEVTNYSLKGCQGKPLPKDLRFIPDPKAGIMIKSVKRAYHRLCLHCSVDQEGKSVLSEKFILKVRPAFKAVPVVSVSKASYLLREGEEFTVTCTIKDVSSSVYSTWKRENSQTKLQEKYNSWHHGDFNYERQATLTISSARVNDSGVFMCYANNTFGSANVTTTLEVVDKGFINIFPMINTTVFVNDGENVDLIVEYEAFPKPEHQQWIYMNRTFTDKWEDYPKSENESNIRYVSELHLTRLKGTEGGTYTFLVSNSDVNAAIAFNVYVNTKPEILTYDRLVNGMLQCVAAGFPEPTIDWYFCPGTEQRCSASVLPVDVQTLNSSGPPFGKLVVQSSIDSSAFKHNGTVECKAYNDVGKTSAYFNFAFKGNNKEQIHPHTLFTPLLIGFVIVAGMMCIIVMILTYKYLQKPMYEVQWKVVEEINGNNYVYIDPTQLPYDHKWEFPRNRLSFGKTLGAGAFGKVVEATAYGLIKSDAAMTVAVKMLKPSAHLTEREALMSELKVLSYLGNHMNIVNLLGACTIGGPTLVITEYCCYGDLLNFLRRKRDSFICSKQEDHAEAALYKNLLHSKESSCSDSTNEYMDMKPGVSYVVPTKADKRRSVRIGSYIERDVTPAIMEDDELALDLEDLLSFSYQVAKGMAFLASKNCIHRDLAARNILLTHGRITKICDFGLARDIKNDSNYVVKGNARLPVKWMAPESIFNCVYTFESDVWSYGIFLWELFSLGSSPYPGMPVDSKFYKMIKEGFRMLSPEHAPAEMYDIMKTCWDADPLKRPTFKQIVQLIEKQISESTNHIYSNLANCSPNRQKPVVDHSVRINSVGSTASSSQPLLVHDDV

| SMILES | Kd (KIT kinase) | IC50 (FLT3-ITD) | Kd (FLT3 kinase) |
| --- | --- | --- | --- |
| CC(C)(c1cc(NC(=O)Cc2ccc(-c3cnc4[nH]nc(OCCOC(F)(F)F)c4c3)cc2F)no1)C(F)(F)F [Example 114, 2-[2-fluoro-4-[3-[2-(trifluoromethoxy)ethoxy]-1H-pyrazolo[3,4-b]pyridin-5-yl]phenyl]-N-[5-(2,2,2-trifluoro-1,1-dimethyl-ethyl)isoxazol-3-yl]acetamide] | 5 to 20 nM | < 10 nM | < 5 nM |
| COc1cc2ncc(-c3ccc(CC(=O)Nc4cc(C(C)(C)C(F)(F)F)on4)c(F)c3)cc2c(OC)c1OC [Example 115, 2-[2-fluoro-4-(5,6,7-trimethoxy-3-quinolyl)phenyl]-N-[5-(2,2,2-trifluoro-1,1-dimethyl-ethyl)isoxazol-3-yl]acetamide] | 5 to 20 nM | < 10 nM | < 5 nM |
| COc1cc2nc(OC)c(-c3ccc(CC(=O)Nc4cc(C5(C(F)(F)F)CC5)on4)c(F)c3)nc2cc1OC [Example 124, 2-[2-fluoro-4-(3,6,7-trimethoxyquinoxalin-2-yl)phenyl]-N-[5-[1-(trifluoro-methyl)cyclopropyl]isoxazol-3-yl]acetamide] | 5 to 20 nM | 10 to 20 nM | < 5 nM |
| COCCOc1cc2ncc(-c3ccc(CC(=O)Nc4cc(C5(C(F)(F)F)CC5)on4)c(F)c3)nc2cc1OCCOC [Example 125, 2-[4-[6,7-bis(2-methoxyethoxy)quinoxalin-2-yl]-2-fluoro-phenyl]-N-[5-[1-(trifluoro-methyl)cyclopropyl]isoxazol-3-yl]acetamide] | < 5 nM | < 10 nM | < 5 nM |
| COCCOc1cc2ncc(-c3ccc(CC(=O)Nc4cc(C5(C(F)(F)F)CC5)on4)c(F)c3)cc2cc1OC [Example 126, 2-[2-fluoro-4-[6-methoxy-7-(2-methoxyethoxy)-3-quinolyl]phenyl]-N-[5-[1-(trifluoromethyl)cyclo-propyl]isoxazol-3-yl]acetamide] | < 5 nM | < 10 nM | < 5 nM |
| COc1cc2cc(-c3ccc(CC(=O)Nc4cc(C5(C(F)(F)F)CC5)on4)c(F)c3)cnc2cc1OCCOC(C)=O [Example 127, 2-[[3-[3-fluoro-4-[2-oxo-2-[[5-[1-(trifluoro-methyl)cyclopropyl]isoxazol-3-yl]amino]ethyl]phenyl]-6-methoxy-7-quinolyl]oxy]ethyl acetate] | < 5 nM | < 10 nM | < 5 nM |
| COc1cc2cc(-c3ccc(CC(=O)Nc4cc(C5(C(F)(F)F)CC5)on4)c(F)c3)cnc2cc1OC [Example 128, 2-[4-(6,7-dimethoxy-3-quinolyl)-2-fluoro-phenyl]-N-[5-[1-(trifluoro-methyl)cyclopropyl]isoxazol-3-yl]acetamide] | < 5 nM | < 10 nM | < 5 nM |
| COc1cc2cc(-c3ccc(CC(=O)Nc4cc(C(C)(C)C(F)(F)F)on4)c(F)c3)cnc2cc1OC [Example 129, 2-[4-(6,7-dimethoxy-3-quinolyl)-2-fluoro-phenyl]-N-[5-(2,2,2-trifluoro-1,1-dimethyl-ethyl)isoxazol-3-yl]acetamide] | < 5 nM | < 10 nM | < 5 nM |
| COc1cc2nc(-c3ccc(CC(=O)Nc4cc(C5(C(F)(F)F)CC5)on4)c(F)c3)cnc2cc1OCCOC(C)=O [Example 130, 2-[2-[3-fluoro-4-[2-oxo-2-[[5-[1-(trifluoromethyl)cyclo-propyl]isoxazol-3-yl]amino]ethyl]phenyl]-7-methoxy-quinoxalin-6-yl]oxyethyl acetate] | < 5 nM | < 10 nM | < 5 nM |
| COc1cc2nc(-c3ccc(CC(=O)Nc4cc(C5(C(F)(F)F)CC5)on4)c(F)c3)cnc2cc1OCCO [Example 131, 2-[2-fluoro-4-[6-(2-hydroxyethoxy)-7-methoxy-quinoxalin-2-yl]phenyl]-N-[5-[1-(trifluoromethyl)cyclo-propyl]isoxazol-3-yl]acetamide] | < 5 nM | < 10 nM | < 5 nM |
| CCOC(=O)c1nc2cc(OC)c(OC)cc2nc1-c1ccc(CC(=O)Nc2cc(C3(C(F)(F)F)CC3)on2)c(F)c1 [Example 132, ethyl 3-[3-fluoro-4-[2-oxo-2-[[5-[1-(trifluoro-methyl)cyclopropyl]isoxazol-3-yl]amino]ethyl]phenyl]-6,7-dimethoxy-quinoxaline-2-carboxylate] | > 50 nM | > 50 nM | > 50 nM |
| COc1cc2nc(C(=O)O)c(-c3ccc(CC(=O)Nc4cc(C5(C(F)(F)F)CC5)on4)c(F)c3)nc2cc1OC [Example 133, 3-[3-fluoro-4-[2-oxo-2-[[5-[1-(trifluoro-methyl)cyclopropyl]isoxazol-3-yl]amino]ethyl]phenyl]-6,7-dimethoxy-quinoxaline-2-carboxylic acid] | > 50 nM | > 50 nM | 20 to 50 nM |
| COc1cc2nc(-c3ccc(CC(=O)Nc4cc(C5(C(F)(F)F)CC5)on4)c(F)c3)cnc2cc1OCCN1CCCC1 [Example 134, 2-[2-fluoro-4-[7-methoxy-6-(2-pyrrolidin-1-ylethoxy)quinoxalin-2-yl]phenyl]-N-[5-[1-(trifluoromethyl)cyclo-propyl]isoxazol-3-yl]acetamide] | < 5 nM | < 10 nM | < 5 nM |
| COc1cc2nc(C(N)=O)c(-c3ccc(CC(=O)Nc4cc(C5(C(F)(F)F)CC5)on4)c(F)c3)nc2cc1OC [Example 135, 3-[3-fluoro-4-[2-oxo-2-[[5-[1-(trifluoro-methyl)cyclopropyl]isoxazol-3-yl]amino]ethyl]phenyl]-6,7-dimethoxy-quinoxaline-2-carboxamide] | > 50 nM | > 50 nM | > 50 nM |
| COc1cc2nc(-c3ccc(CC(=O)Nc4cc(C5(C(F)(F)F)CC5)on4)c(F)c3)cnc2cc1OCCOC(=O)N(C)C [Example 136, 2-[2-[3-fluoro-4-[2-oxo-2-[[5-[1-(trifluoro-methyl)cyclopropyl]isoxazol-3-yl]amino]ethyl]phenyl]-7-methoxy-quinoxalin-6-yl]oxyethyl N,N-dimethylcarbamate] | 5 to 20 nM | < 10 nM | < 5 nM |
| COc1cc2nc(CO)c(-c3ccc(CC(=O)Nc4cc(C5(C(F)(F)F)CC5)on4)c(F)c3)nc2cc1OC [Example 137, 2-[2-fluoro-4-[3-(hydroxymethyl)-6,7-dimethoxy-quinoxalin-2-yl]phenyl]-N-[5-[1-(trifluoro-methyl)cyclopropyl]isoxazol-3-yl]acetamide] | < 5 nM | < 10 nM | < 5 nM |
| COc1cc2ncc(-c3ccc(CC(=O)Nc4cc(C(C)(C)C(F)(F)F)on4)c(F)c3)c(Cl)c2cc1OC [Example 138, 2-[4-(4-chloro-6,7-dimethoxy-3-quinolyl)-2-fluoro-phenyl]-N-[5-(2,2,2-trifluoro-1,1-dimethyl-ethyl)isoxazol-3-yl]acetamide] | < 5 nM | < 10 nM | < 5 nM |

Next, values leading:

| Kd (KIT kinase) | IC50 (FLT3-ITD) | Kd (FLT3 kinase) | SMILES |
| --- | --- | --- | --- |
| < 5 nM | < 10 nM | < 5 nM | COc1cc2ncc(-c3ccc(CC(=O)Nc4cc(C(C)(C)C)on4)cc3)cc2c(OC)c1OC [Example 116, N-(5-tert-butylisoxazol-3-yl)-2-[4-(5,6,7-trimethoxy-3-quinolyl)phenyl]acetamide] |
| < 5 nM | < 10 nM | < 5 nM | CN(C)NC(=O)c1cc2cc(-c3ccc(CC(=O)Nc4cc(C5(C(F)(F)F)CC5)on4)c(F)c3)cnc2[nH]1 [Example 117, 2-[4-[2-(dimethylaminocarbamoyl)-1H-pyrrolo[2,3-b]pyridin-5-yl]-2-fluoro-phenyl]-N-[5-[1-(trifluoro-methyl)cyclopropyl]isoxazol-3-yl]acetamide] |
| < 5 nM | < 10 nM | < 5 nM | CCOc1cc2ncc(-c3ccc(CC(=O)Nc4cc(C5(C(F)(F)F)CC5)on4)c(F)c3)nc2cc1OCC [Example 118, 2-[4-(6,7-diethoxyquinoxalin-2-yl)-2-fluoro-phenyl]-N-[5-[1-(trifluoromethyl)cyclo-propyl]isoxazol-3-yl]acetamide] |
| < 5 nM | < 10 nM | < 5 nM | O=C(Cc1ccc(-c2cnc3cc4c(cc3n2)OCO4)cc1F)Nc1cc(C2(C(F)(F)F)CC2)on1 [Example 119, 2-[4-([1,3]dioxolo[4,5-g]quinoxalin-6-yl)-2-fluoro-phenyl]-N-[5-[1-(trifluoro-methyl)cyclopropyl]isoxazol-3-yl]acetamide] |
| < 5 nM | < 10 nM | < 5 nM | COCCOc1cc2ncc(-c3ccc(CC(=O)Nc4cc(C(C)(C)C)on4)cc3)nc2cc1OCCOC [Example 120, 2-[4-[6,7-bis(2-methoxyethoxy)quinoxalin-2-yl]phenyl]-N-(5-tert-butylisoxazol-3-yl)acetamide] |
| < 5 nM | < 10 nM | < 5 nM | O=C(Cc1ccc(-c2cnc3cc4c(cc3n2)OC[C@@H](CO)O4)cc1F)Nc1cc(C2(C(F)(F)F)CC2)on1 [Example 121, 2-[2-fluoro-4-[(2R)-2-(hydroxymethyl)-2,3-dihydro-[1,4]dioxino[2,3-g]quinoxalin-7-yl]phenyl]-N-[5-[1-(trifluoro-methyl)cyclopropyl]isoxazol-3-yl]acetamide] |
| < 5 nM | < 10 nM | < 5 nM | O=C(Cc1ccc(-c2cnc3cc4c(cc3n2)O[C@H](CO)CO4)cc1F)Nc1cc(C2(C(F)(F)F)CC2)on1 [Example 122, 2-[2-fluoro-4-[(3R)-3-(hydroxymethyl)-2,3-dihydro-[1,4]dioxino[2,3-g]quinoxalin-7-yl]phenyl]-N-[5-[1-(trifluoro-methyl)cyclopropyl]isoxazol-3-yl]acetamide] |
| < 5 nM | < 10 nM | < 5 nM | COc1cc2nc(N)c(-c3ccc(CC(=O)Nc4cc(C5(C(F)(F)F)CC5)on4)c(F)c3)nc2cc1OC [Example 123, 2-[4-(3-amino-6,7-dimethoxy-quinoxalin-2-yl)-2-fluoro-phenyl]-N-[5-[1-(trifluoro-methyl)cyclopropyl]isoxazol-3-yl]acetamide] |
